The source of these data is patent US20090004694A1, “Sequence of Thermotolerant L-Rhamnose Isomerase Gene and Use of the Same” (National University Corporation Kagawa University, priority 2004, published 2009).

Values joined by “and” are separate entries in the source; they are usually repeats but may differ in a detail not shown here. Equal entries are not always repeated. Where two headings read alike, the source gives them in different places.

Data set [1] concerns L-rhamnose isomerase derived from Bacillus pallidus strain 14a (IPOD FERM AP-20172). Kind of data set: Substrate specificity (relative activity) of the purified enzyme, cysteine-carbazole method. Conditions: activity against L-rhamnose assumed to be 100%; 50° C., 10 minutes, glycine-NaOH buffer pH 9.0. The data set is classed as biochemical. Here is the method:
(§1) The method for measuring the substrate specificity (relative activity (%)) will be described.
(§2) A reaction solution having a composition of 50 μl of the purified enzyme solution, 50 μl of 0.05 M of each substrate sugar, 50 μl of 0.01 M manganese chloride and 0.05 M glycine-NaOH buffer (pH 9.0) was used. The reaction was carried out at a reaction temperature of 50° C. for 10 minutes. The produced ketose corresponding to the respective substrates was measured by the cysteine-carbazole method, and the activity that produces 1 μmol of the ketose per minute was measured for the respective substrates.

Data set [2] deals with L-rhamnose isomerase produced by Pseudomonas stutzeri LL172 (IPOD FERM BP-08593). The description is as above. The data set is classed as biochemical. Conditions: activity against L-rhamnose assumed to be 100%; 50° C., 10 minutes, glycine-NaOH buffer pH 9.0. On the procedure:
as §1, §2

The test system of data set [3] is L-rhamnose isomerase produced by Pseudomonas stutzeri LL172. Conditions: cited from earlier work; for effect of chelating agent on activity: coexisting during the measurement of the activity.
The test system of data set [4] is L-rhamnose isomerase derived from Bacillus pallidus strain 14a. Kind of data set: Effect of metal ion on enzyme activity. Conditions: 1 mM cobalt ion. It is filed as biochemical.
The nature of data set [5]: Solubility of D-psicose and D-allose in water and alcohols. It is filed as physicochemical. The text has this:
The principle of the collection by separation will be briefly described. […] D-psicose has a solubility of about 10% in methanol and ethanol, however, D-allose is insoluble in either alcohol. The temperature has an influence on the solubility. The solubility of D-psicose in both alcohols is increased at a high temperature. Further, when the alcohol concentration is high, D-allose is likely to be crystallized. It is a separation technique utilizing the above physical properties. It is a production method of high-purity D-allose in which by allowing an alcohol (ethanol and/or ethanol) to act on, D-allose which is insoluble in the alcohol (ethanol and/or ethanol) is crystallized and the crystal of D-allose is separated.

For data set [6], the target named is T1, L-rhamnose isomerase produced by E. coli (Escherichia coli, UniProt P32170).
T1 sequence (P32170 1-419): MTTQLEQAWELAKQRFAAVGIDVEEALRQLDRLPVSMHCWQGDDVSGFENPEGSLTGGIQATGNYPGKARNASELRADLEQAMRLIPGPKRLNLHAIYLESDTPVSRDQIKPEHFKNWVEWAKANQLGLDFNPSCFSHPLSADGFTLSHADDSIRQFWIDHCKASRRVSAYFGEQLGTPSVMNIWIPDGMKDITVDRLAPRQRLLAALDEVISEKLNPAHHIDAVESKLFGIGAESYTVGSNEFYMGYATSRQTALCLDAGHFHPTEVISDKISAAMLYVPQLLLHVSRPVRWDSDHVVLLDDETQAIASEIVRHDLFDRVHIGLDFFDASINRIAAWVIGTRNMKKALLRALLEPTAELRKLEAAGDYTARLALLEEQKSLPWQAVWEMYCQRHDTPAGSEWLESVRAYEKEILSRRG
Conditions: cited from earlier work.

The nature of data set [7]: Optimal pH and working pH of L-rhamnose isomerase. It is filed as biochemical. Conditions: 50° C., L-rhamnose as substrate, purified enzyme. On the procedure: The optimal pH of L-rhamnose isomerase derived from Bacillus pallidus was examined. With the use of the purified enzyme, a reaction was carried out at 50° C. using L-rhamnose as a substrate at each pH value.
The optimal pH of L-rhamnose isomerase derived from P. stutzeri was examined. […] With regard to the activity thereof, the optimal pH was present in a range of from pH 7 to around pH 9.

The nature of data set [8]: Optimal and working temperature of L-rhamnose isomerase. It is filed as biochemical. Conditions: reaction time of 10 minutes.
The nature of data set [9]: Temperature stability of L-rhamnose isomerase. It is filed as physicochemical. Conditions: heat treatment condition of 1 hour.
For data set [10] the following is noted: known properties (Non-patent document 1 / Patent document 1); cited from earlier work.
For data set [11] the following is noted: reaction time 10 minutes; cited from earlier work.
The conditions of data set [12]: cited from earlier work.

For `O=C[C@H](O)[C@H](O)[C@@H](O)CO` [L-lyxose], the “Enzyme derived from B. Pallidus (relative activity %)” value in data set [1] is given as 23.9%. The “Enzyme derived from P stutzeri (relative activity %)” value in data set [2] is 43.9% and 43.7%.
On to `O=C(O)CN(CCOCCOCCN(CC(=O)O)CC(=O)O)CC(=O)O` [EGTA], for which, in [3], the “effect of chelating agent on activity” value was “hardly inhibited”.
In the case of `O=C[C@H](O)[C@H](O)[C@@H](O)[C@@H](O)CO` [L-mannose], the “Enzyme derived from B. Pallidus (relative activity %)” value in data set [1] is listed as 11%. The “Enzyme derived from P stutzeri (relative activity %)” value in data set [2] was 33.4%.
For `O=C[C@@H](O)[C@@H](O)[C@H](O)CO` [D-lyxose], in that order: 0.14% and 0.006%.
On to `C[C@H](O)[C@H](O)[C@@H](O)[C@@H](O)C=O` [L-rhamnose], for which the “Enzyme derived from B. Pallidus (relative activity %)” value in data set [1] was 100%. In addition, the “Enzyme derived from P stutzeri (relative activity %)” value in [2] is given as 100%.
As to `[Co+2]` [cobalt ion], the “activity inhibited by metal ion” value in [4] and in [3] (1 mM cobalt ion) was “About 30%” in each case.
In the case of `O=C(O)CN(CCN(CC(=O)O)CC(=O)O)CC(=O)O` [EDTA], the “effect of chelating agent on activity” value in data set [3] is reported as “hardly inhibited”.
`O=C(CO)[C@H](O)[C@H](O)[C@H](O)CO` [D-psicose]: the “solubility in methanol and ethanol” value in data set [5] (methanol and ethanol) was “about 10%”. The solubility in water entry in data set [5] (water) is “readily soluble”. In addition, the “activity between D-psicose and D-allose” value in data set [6] was “hardly exhibits an activity”.
On to `O=C[C@H](O)[C@H](O)[C@H](O)[C@H](O)CO` [D-allose], for which the “Enzyme derived from B. Pallidus (relative activity %)” value in [1] was 5.5% and 5.6%. In addition, the “Enzyme derived from P stutzeri (relative activity %)” value in data set [2] turned out to be 7.2%. In addition, in data set [5], the “solubility in methanol and ethanol” value is given as “insoluble”; the solubility in water result is “readily soluble”. The “activity between D-psicose and D-allose” value in data set [6] is given as “hardly exhibits an activity”.

B1: L-rhamnose isomerase derived from Bacillus pallidus: thermotolerant L-rhamnose isomerase derived from Bacillus pallidus strain 14a (FERM AP-20172), amino acid sequence SEQ ID NO: 2 (protein, listed as Bacillus pallidus)
chain: MVIKESFEIARQVYEKWGINIEEVLENLQQASISIHCWQGDDVKGFEADASELSGGIDVTGNYPGKARNAEELRQDLEKALSLIPGKHRVNLHAIYAETNGEKVERDQLEPKHFENWVNWAKKIGIGLDFNPTLFSHEKAADGLTLSHPDPGIREFWINHCIRSRKIGEYFGKELGTPCLTNIWIPDGYKDIPSDRLTPRKRLKESLDKIFSVEINEKYNLDAVESKLFGIGSESFVVGSHEFYLGYALQNNKIYLLDTGHFHPTETVSNKISSILLYSDRLALHVSRPVRWDSDHVVILDDELREIALEIVRNDALHKVLIGLDFFDASINRLAAWVIGTRNMIKALLYAMLMPHEYLKQLQEKGNFTERLAVMEEFKTYPFGAIWDYYCEKMNVPVREEWLKEIQKYEEEVLTKRQ
Take B1: the “pH at which the highest activity was exhibited” value in data set [7] is recorded as 6. In data set [8], the “optimal temperature (highest enzymatic activity)” value is 80 °C and the “optimal temperature higher compared with the L-rhamnose isomerase of LL172” value stood at 20 °C. For the same molecule, the “optimal temperature higher compared with the L-rhamnose isomerase of LL172” value in data set [8] (listed as thermotolerant L-rhamnose isomerase) was “about 20 °C”. Further, in [9], the “stable temperature higher compared with the L-rhamnose isomerase of LL172” value was 10 °C and the “temperature stability (stable up to)” value was “up to 50 °C”.

B2: L-rhamnose isomerase produced by Pseudomonas stutzeri LL172: known L-rhamnose isomerase derived from Pseudomonas stutzeri LL172 (FERM BP-08593), amino acid sequence SEQ ID NO: 4 (protein, listed as Pseudomonas stutzeri)
chain: MAEFRIAQDVVARENDRRASALKEDYEALGANLARRGVDIEAVTAKVEKFFVAVPSWGVGTGGTRFARFPGTGEPRGIFDKLDDCAVIQQLTRATPNVSLHIPWDKADPKELKARGDALGLGFDAMNSNTFSDAPGQAHSYKYGSLSHTDAATRAQAVEHNLECIEIGKAIGSKALTVWIGDGSNFPGQSNFTRAFERYLSAMAEIYKGLPDDWKLFSEHKMYEPAFYSTVVQDWGTNYLIAQTLGPKAQCLVDLGHHAPNTNIEMIVARLIQFGKLGGFHFNDSKYGDDDLDAGAIEPYRLFLVFNELVDAEARGVKGFHPAHMIDQSHNVTDPIESLINSANEIRRAYAQALLVDRAALSGYQEDNDALMATETLKRAYRTDVEPILAEARRRTGGAVDPVATYRASGYRARVAAERPASVAGGGGII
Broadly, the remaining activity is what remains of the control signal, in per cent. In the case of B2, the “pH at which the highest activity was exhibited” value in data set [7] is reported as 9. Further, the “optimal temperature (highest enzymatic activity)” value in [8] is 60 °C. Also, in [9], the “temperature stability (stable up to)” value came out at 40 °C. Moreover, in data set [10], the “optimal pH” value is on record as 9.0. Moreover, in data set [11], the “temperature of highest activity” value is 60 °C. In addition, in [12] (50° C. for 10 minutes), the remaining activity was at least 90%. Further, the “temperature stability (stable at)” value in [12] (10 minutes) is 40 °C.
